PubChem BioAssay (NCI)
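The compound was tested at five concentrations on cells cultured in 96-well plates, with a 48-hour exposure period. The concentration for 50% growth inhibition is given as GI50. TGI: total growth inhibition.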

Assays:
Assay in all cases: NCI tumour cell line growth inhibition, 48 h
M14 melanoma = system: M14 melanoma
SF-539 CNS = system: SF-539 CNS
HCC-2998 colon = system: HCC-2998 colon
MOLT-4 leukemia = system: MOLT-4 leukemia
SK-MEL-5 melanoma = system: SK-MEL-5 melanoma
OVCAR-5 ovarian = system: OVCAR-5 ovarian
T-47D breast = system: T-47D breast
786-0 renal = system: 786-0 renal
U251 CNS = system: U251 CNS
SK-MEL-28 melanoma = system: SK-MEL-28 melanoma

| Structure (SMILES) | GI50 (M14 melanoma) | TGI (M14 melanoma) | GI50 (SF-539 CNS) | TGI (SF-539 CNS) | GI50 (HCC-2998 colon) | TGI (HCC-2998 colon) | GI50 (MOLT-4 leukemia) | TGI (MOLT-4 leukemia) | GI50 (SK-MEL-5 melanoma) | TGI (SK-MEL-5 melanoma) | GI50 (OVCAR-5 ovarian) | TGI (OVCAR-5 ovarian) | GI50 (T-47D breast) | TGI (T-47D breast) | GI50 (786-0 renal) | TGI (786-0 renal) | GI50 (U251 CNS) | TGI (U251 CNS) | GI50 (SK-MEL-28 melanoma) | TGI (SK-MEL-28 melanoma) |
| --- | --- | --- | --- | --- | --- | --- | --- | --- | --- | --- | --- | --- | --- | --- | --- | --- | --- | --- | --- | --- |
| Cc1ccnc2c1NC(=O)c1cccnc1N2C1CC1 | > 100 µM | > 100 µM | > 100 µM | > 100 µM | > 100 µM | > 100 µM | > 100 µM | > 100 µM | > 100 µM | > 100 µM | > 100 µM | > 100 µM | > 100 µM | > 100 µM | > 100 µM | > 100 µM | > 100 µM | > 100 µM | > 100 µM | > 100 µM |
| C[C@]12CC[C@H]3[C@@H](C[C@@H]4SC(Nc5cccc(F)c5)=N[C@@]45CC(=O)CC[C@]35C)[C@@H]1CCC2=O | 2.36 µM | 7.23 µM | 1.34 µM | 2.94 µM | 3.55 µM | 14.6 µM | 1.68 µM | 28.3 µM | 2.02 µM | 4.32 µM | 2.73 µM | 18 µM | 2.22 µM | 6.95 µM | 1.43 µM | 2.83 µM | 1.59 µM | 3.68 µM | 1.52 µM | 4.27 µM |
| O=[N+]([O-])c1ccc2nc(N/N=C/c3ccc(O)cc3)sc2c1 |  |  | 3.2 µM | > 100 µM | 7.08 µM | > 100 µM | 2.96 µM | > 100 µM | 2.88 µM | 11.1 µM | 18.9 µM | > 100 µM | 3.01 µM | 13.2 µM | 6.43 µM | 60.5 µM | 4.56 µM | 67.5 µM | 9.43 µM | 57.2 µM |
| C[C@]12CC[C@@H]3c4ccc(O)cc4CC[C@H]3[C@@H]1CC[C@@H]2NS(=O)(=O)c1cccc(Br)c1 | 3.69 µM | 13.7 µM | 2.6 µM | 8.8 µM | 4.31 µM | 15.9 µM | 2.59 µM | 12.7 µM | 1.77 µM | 3.31 µM | 4.09 µM | 16.3 µM | 5.05 µM | 17.6 µM | 3.25 µM | 10.4 µM | 3.23 µM | 11 µM | 4.21 µM | 15.9 µM |
| O=C(Nc1ccc(-n2cc(-c3ccncc3)c(-c3ccc(Cl)c(O)c3)n2)cc1)c1cc(Cl)cc(Cl)c1 | 1.95 µM | 6.67 µM | 1.88 µM | > 100 µM | 3.41 µM | > 23.6 µM | 5.71 µM | > 100 µM | 1.46 µM | 2.93 µM | 8.42 µM | 97.5 µM | > 100 µM | > 100 µM | 1.53 µM | 4.23 µM | 3.93 µM | > 100 µM | 2.42 µM | > 30.8 µM |
| CS(=O)(=O)c1ccc(C(F)(F)F)cc1NC(=O)Nc1cnc(Oc2ccc(-c3cc(Cl)cnc3N)cc2)nc1 | 2.02 µM | 4.8 µM | 1.94 µM | 4.96 µM | 2.79 µM | 8.72 µM | 2.12 µM | 6.53 µM | 1.87 µM | 3.87 µM | 3.1 µM | 15.9 µM | 2.05 µM | 7.7 µM | 2.4 µM | 7 µM | 2.56 µM | 12.3 µM | 2.21 µM | 5.62 µM |
| Cc1cc(N2CCN(C)CC2)nc(NC2CCCC(Nc3ccnc4cc(Cl)ccc34)C2)n1 (stereo not drawn) | 1.7 µM | 3.46 µM | 1.68 µM | 3.31 µM | 1.97 µM | 7.4 µM | 1.77 µM | 7.59 µM | 1.76 µM | 3.17 µM | 2.88 µM | 9.88 µM | 1.91 µM | 4.6 µM | 1.81 µM | 4.15 µM | 2.02 µM | 4.33 µM | 1.8 µM | 3.7 µM |
| CC1=CC(C)C(O)C(C)/C=C/C(O)C/C=C(/C)C(=O)CC(O)C(C)\C=C/C=C/C=C\C(=O)NC2=C(O)c3cc(C)c(O)c(c3C(=O)C2=O)C1=O (stereo not drawn) |  | > 100 µM |  | > 100 µM |  | > 100 µM |  | > 100 µM |  | > 100 µM |  | > 100 µM |  | > 100 µM |  | > 100 µM |  | > 100 µM |  | > 100 µM |
| Nc1cc(C(F)F)c(-c2nc(N3[C@@H]4CC[C@H]3COC4)nc(N3[C@@H]4CC[C@H]3COC4)n2)cn1 | 0.295 µM | 23.9 µM | 0.297 µM | 3.02 µM | 0.636 µM | > 100 µM | 0.796 µM | > 100 µM | 0.407 µM | 4.48 µM | 0.3 µM | 43 µM | 0.0533 µM | 0.41 µM | 0.306 µM | 14.3 µM | 0.501 µM | > 100 µM | 0.203 µM | 2.92 µM |
| O=C1OC(c2ccc([N+](=O)[O-])cc2)=N/C1=C\c1ccc(O)cc1 |  | > 100 µM |  | > 100 µM |  | > 100 µM |  | > 100 µM |  | > 100 µM |  | > 100 µM |  | > 100 µM |  | > 100 µM |  | > 100 µM |  | > 100 µM |
| NC(=O)c1c(OCc2c(F)cc(Br)cc2F)nsc1NC(=O)NCCCCN1CCCC1 | 1.6 µM | 3.46 µM | 1.38 µM | 2.92 µM | 5.26 µM | > 10 µM | 2.14 µM | 9.76 µM | 1.56 µM | 2.96 µM | 3.1 µM | > 10 µM | 1.18 µM | > 10 µM | 1.43 µM | 4.42 µM | 1.71 µM | 5.51 µM | 1.71 µM | 3.35 µM |
| COc1cc(/C=C2\C(=O)N(c3c(Cl)cccc3Cl)c3ccccc32)cc(OC)c1O | 1.03 µM | 15.6 µM | 0.531 µM | 17.3 µM | 3.3 µM | 17.7 µM | 0.455 µM | 20.4 µM | 0.375 µM | 6.26 µM | 8.04 µM | 25 µM | 2.89 µM | 17.8 µM | 1.49 µM | 17.4 µM | 0.315 µM | 13.5 µM | 1.25 µM | 13.5 µM |
